Results from patent US8956646B2, “Zwitterionic lipids” (The Regents of the University of California, priority 2010, dated 2015).

How the values were obtained:
Format in all cases: physicochemical
[1] = ZNLP hydrodynamic diameter, zeta potential and encapsulation efficiency; settings: ZNLP encapsulating siRNA
Protocol: 5-10 min after particle formation liposomes are extruded through either 50 nm or 80 nm polycarbonate membranes 7 times. Methanol can be removed by either evaporation or dialysis.
FIG. 29 is a table showing ZNLP encapsulating siRNA: hydrodynamic diameter and zeta potential: siRNA was encapsulated into ZNLP from various zwitterionic lipids.
FIG. 30 is a table showing the effect of helper lipids on size and encapsulation efficiency: Changing helper lipid and lipid composition affects size and encapsulation efficiency of ZNLP. DOBA-Q formed small lipid vesicles≦80 nm. […] All lipid formulations display negative/neutral zeta potential.

[2] = Zeta potential of BLL containing vesicles as a function of pH; settings: changing ratio of DOBAQ:DOPC
Protocol: Liposomes containing quaternary BLL remain neutral at pH>pI, while liposomes containing tertiary BLL move from neutral to anionic as pH increases above the pI due to deprotonation of the amine.
All other lipids show pH responsive behavior, with 4° BLL generally transitioning from cationic to neutral, and 3° from cationic to neutral to anionic.
Further analysis is required to fully understand this behavior.

[3] = Zeta/surface potential of SBL liposomes in salt solutions; settings: order of anions; data not shown
From the text: The vesicles formed in these three salts were all reasonably small, with those formed in KBr having, on average, a slighter larger diameter. This may be due the weaker binding of Br^− to the cationic region of the SBLs relative to I^− and ClO4^−, which would result in a higher percentage of SBLs in the inner-salt conformation.

[4] = SBL liposome formation, diameter and PDI in various salts; parameters: key to Liposome diameter (nm): DNF=Did Not Form, no liposomes formed
Protocol: The five SBLs were first examined for their ability to make vesicles under standard buffer conditions (10 mM HEPES, 140 mM NaCl, pH 7.4). We observed that none of the five SBLs were able to form stable liposomes after thin film rehydration in this buffer followed by sonication at 80° C. […] To test if the SB headgroup inner salt interactions could be disrupted by an increase in salt concentration, the same liposome formation process was performed at increasing NaCl concentrations. Salts with different anions were also tested to determine if those predicted to have greater binding than Cl^− would allow for liposome formation at concentrations where NaCl was not able to. Liposome-formation results are shown in Table 4 for all five SBLs with a variety of salts and at various NaCl concentrations.
Liposome preparations were made at 26 mM lipid in 10 mM HEPES buffer, pH 7.4 with the specified salt concentration. All preparations were rehydrated and sonicated at 80° C. for 7 minutes, allowed to cool for 5 minutes and then measured.
Liposome diameters were measured both five minutes after sonication and at 24 hours. DPSB and DSSB in NaI both formed gels and could not be measured and DPSB and DSSB with KBr precipitated into particles too large and polydisperse for measurement.

[5] = Phase transition temperatures of sulfobetaine lipids (DSC)
Protocol: All buffers contain 10 mM HEPES, pH 7.4. Preparations were made at 26 mM SB lipid by thin film rehydration at 80° C., followed by brief 20 second bursts of sonication at 80° C. (˜2-4 times) to make dispersions of large bilayer fragments.
Based on our observations that SBL liposome formation and stability is largely dependent on salt composition and concentration we sought to determine if these effects changed the transition temperatures of the liposomes. The data in FIG. 3 clearly depicts a bi-modal phase transition behavior for the SBLs. Without salt, the majority of the SBLs are likely in one of the inner salt forms supported by the observed elevated transition temperatures.
Inner and outer salt conformations of the SBLs are hypothesized to coordinate to the observed high and low phase transitions, respectively.

[6] = 150 mM KBr, five minutes after sonication
[7] = 150 mM NaClO4, five minutes after sonication
[8] = 150 mM NaI, five minutes after sonication
[9] = 500 mM NaCl, 26 mM lipid, 10 mM HEPES pH 7.4
[10] = 1000 mM NaCl, 26 mM lipid, 10 mM HEPES pH 7.4

SMILES: CCCCCCCC/C=C\CCCCCCCC(=O)OCC(C[N+](C)(C)Cc1ccc(C(=O)[O-])cc1)OC(=O)CCCCCCC/C=C\CCCCCCCC (stereo not shown) [DOBAQ]
- ZNLP size (hydrodynamic diameter) [1]: ≤ 80 nm
- Zeta potential as function of pH, effect of BLL:DOPC ratio [2]: general relationship between pH and zeta potential is maintained at all ratios tested

SMILES: CCCCCCCCCCCCCC(=O)OCC(C[N+](C)(C)CCCS(=O)(=O)[O-])OC(=O)CCCCCCCCCCCCC (stereo not shown) [DMSB]
- zeta-potential (surface potential) in various salt solutions [3]: most negative for ClO4^−>I^−>Br^−>Cl^−
- Liposome diameter (nm) ([4]; 0 mM NaCl, 26 mM lipid, 10 mM HEPES pH 7.4): DNF
- Liposome diameter (nm) ([4]; 150 mM KBr (24 h)): 31.67 nm
- PDI ([4]; 150 mM KBr (24 h)): 0.181
- Liposome diameter (nm) [4, 6]: 28.53 nm
- PDI [4, 6]: 0.160
- Liposome diameter (nm) ([4]; 150 mM NaCl, 26 mM lipid, 10 mM HEPES pH 7.4): DNF
- Liposome diameter (nm) ([4]; 150 mM NaClO4 (24 h)): 43.68 nm
- PDI ([4]; 150 mM NaClO4 (24 h)): 0.24
- Liposome diameter (nm) [4, 7]: 41.76 nm
- PDI [4, 7]: 0.239
- Liposome diameter (nm) ([4]; 150 mM NaF): DNF
- Liposome diameter (nm) ([4]; 150 mM NaI (24 h)): 38.69 nm
- PDI ([4]; 150 mM NaI (24 h)): 0.250
- Liposome diameter (nm) [4, 8]: 35.3 nm
- PDI [4, 8]: 0.232
- Liposome diameter (nm) [4, 9]: 63.92 nm
- PDI [4, 9]: 0.385
- liposome formation ([4]; 500 mM NaF): unable to form liposomes
- Liposome diameter (nm) [4, 10]: 76.8 nm
- PDI [4, 10]: 0.233
- phase transitions observed ([5]; 150 mM NaClO4): only the high transition
- phase transitions observed ([5]; 150 mM NaF): only the low transition
- inner/outer salt form (high/low transition) as function of NaCl concentration ([5]; DSC, 10 mM HEPES pH 7.4, NaCl up to 1M): existing as the outer salt with a high transition temperature for all NaCl concentrations up to 1M
- Transition Temperatures (° C.), SB Inner Salt ([5]; hypothesized inner salt form, observed high phase transition): 48 °C
- Transition Temperatures (° C.), SB Outer Salt ([5]; hypothesized outer salt form, observed low phase transition): 25-30 °C
